Read-outs that look alike come from different tables or passages of the source. Blank lines part the entries; values can stand above or below the compound they belong to.
Assays:
[1] = cited from earlier work; for susceptibility to glucuronidation (in words): liver microsomes with UDPGA, 60 min
[2] = test system: dizocilpine-induced prepulse inhibition deficits; details: mouse, with D-serine exposure enhancement; cited from earlier work
[3] = test system: plasma D-serine levels; assay: Effect on D-serine plasma pharmacokinetics after oral co-administration in mice; assay type: in vivo; details: inhibitor and D-serine both 30 mg/kg po
[4] = Plasma pharmacokinetics after oral administration in mice; details: 30 mg/kg po
[5] = Metabolic stability in mouse liver microsomes; assay type: in vitro ADME; details: for susceptibility to glucuronidation (in words): liver microsomes with UDPGA; for stability in the presence of NADPH (in words): mouse liver microsomes
[6] = Binding to mouse plasma protein; assay type: in vitro ADME
[7] = molecular target: recombinant human DAAO (Homo sapiens, UniProt P14920); assay: Inhibition of recombinant human DAAO; assay type: biochemical; details: human DAAO IC50 ratio
[8] = mice; cited from earlier work
[9] = test system: plasma D-serine levels; details: mice, oral co-administration with D-serine; cited from earlier work

recombinant human DAAO, sequence (P14920 whole entry): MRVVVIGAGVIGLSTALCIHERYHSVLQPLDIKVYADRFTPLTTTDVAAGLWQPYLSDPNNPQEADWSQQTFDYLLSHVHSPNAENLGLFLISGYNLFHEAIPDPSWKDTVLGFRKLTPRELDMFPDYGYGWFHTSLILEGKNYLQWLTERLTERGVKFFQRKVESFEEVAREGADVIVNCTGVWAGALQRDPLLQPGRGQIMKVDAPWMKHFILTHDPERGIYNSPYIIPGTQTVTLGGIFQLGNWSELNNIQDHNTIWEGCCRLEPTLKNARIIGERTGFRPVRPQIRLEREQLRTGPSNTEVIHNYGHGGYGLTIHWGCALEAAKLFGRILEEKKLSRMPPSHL

Compound: O=c1cc(CSc2ccc(Cl)c(Cl)c2)occ1O [Compound 1]
- susceptibility to glucuronidation (in words) [1]: extensively glucuronidated
- % remaining after 60 min w/UDPGA ([1]; mouse liver microsomes): 5%

Compound: O=c1[nH]oc2cc(Cl)ccc12 [CBIO, 6-chloro-1,2-benzisoxazol-3(2H)-one]
- effect on dizocilpine-induced prepulse inhibition deficits [2]: attenuation

- time of Cmax after administration [4]: 30 min
- susceptibility to glucuronidation (in words) [5]: resistant to glucuronidation
- stability in the presence of NADPH (in words) [5]: stable
- binding to mouse plasma protein [6]: 74%
Compound: O=c1[nH]nc(CCc2ccccc2)nc1O [Compound 6b, 6-hydroxy-3-phenethyl-1,2,4-triazin-5(2H)-one]
- D-serine AUC0–6hr on co-administration [3]: 74.2 µg·h/mL

- susceptibility to glucuronidation (in words) [5]: resistant to glucuronidation
- stability in the presence of NADPH (in words) [5]: stable
Compound: O=c1[nH]nc(SCc2ccc3cc(F)ccc3c2)nc1O [Compound 6m, 3-((6-fluoronaphthalen-2-yl)methylthio)-6-hydroxy-1,2,4-triazin-5(2H)-one]

- fold more potent than the corresponding meta-phenyl derivative 6k [7]: 8 fold
Compound: O=c1[nH]nc(SCc2ccc(-c3ccccc3)cc2)nc1O [Compound 6j]

Compound: O=c1[nH]nc(CCc2cc(F)cc(F)c2)cc1O [Compound 2b]
- susceptibility to glucuronidation (in words) [1]: some degree of metabolic stability
- % remaining after 60 min w/NADPH ([1]; mouse liver microsomes, NADPH): 92%
- % remaining after 60 min w/UDPGA ([1]; mouse liver microsomes): 59%

Compound: O=c1[nH]c(=O)n(Cc2cccc3ccccc23)nc1O [Compound 3]
- AUC following oral administration [8]: 12900 ng·h/mL
- susceptibility to glucuronidation (in words) [1]: complete resistance to glucuronidation
- degree of enhancement in plasma D-serine levels [9]: 2.2 fold

Source: paper PMC4816084 (Bioorganic & medicinal chemistry letters, 2016)
